According to article PMC6753678, “Fueling Open Innovation for Malaria Transmission-Blocking Drugs: Hundreds of Molecules Targeting Early Parasite Mosquito Stages” (Frontiers in Microbiology, 2019):
pIC50: −log10 of the molar value.

Key:
HepG2 cells = assay: HepG2 cytotoxicity assay; details: unified HepG2 cytotoxicity across the three screens
Procedure, shortened: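 Cells are plated at 2,500 per well on compound-treated plates in MEM containing 10% fetal bovine serum and 1% NEAA, then incubated 48 h at 37°C.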

[1] = system: P. falciparum female gametocytes; parameters: method as in Miguel-Blanco et al 2017; details: ref Miguel-Blanco et al 2017; read-out: Pf FGAA IC50; cited from earlier work
[2] = system: P. falciparum female gametocytes; assay: P. falciparum female gametogenesis assay (Pf FGAA); details: 1: YES; 0: NO; >10-fold selectivity over cytotox

Compound	Unified cytotox (HepG2 cells) [µM]	pIC50 [1]	Is compound selective in assay? Pf FGAA active? [2]
CC(Cc1ccc(NC(=O)c2ccc(CNCCc3ccccc3)cc2)cc1)NCCc1cccc(Cl)c1.Cl (stereo not drawn) [TCMDC-139867]	4.17	5.68	0 (0: NO)
CCCCCCCN1CC[C@@H](CCCc2ccnc3ccc(OC)cc23)[C@@H](CNC)C1.O=C(O)C(=O)O [TCMDC-139875]	5.89	6.14	0 (0: NO)
CN(C)CCCNCc1ccc(-c2ccc(C(F)(F)F)cc2)cc1 [TCMDC-140011]	4.90	5.77	0 (0: NO)
COc1cccc(CCNC(C)Cc2ccc(OCCCCOc3ccccc3)cc2)c1 (stereo not drawn) [TCMDC-140020]	1.46	5.82	0 (0: NO)
Nc1ccc2[nH]cc(C3CCN(CC4CCN(C(=O)/C=C/c5ccc(Cl)c(Cl)c5)CC4)CC3)c2n1 [TCMDC-140061]	5.89	5.75	0 (0: NO)
Nc1ccc2[nH]cc(C3CCN(CCC4CCN(C(=O)/C=C/c5ccc(Cl)c(Cl)c5)CC4)CC3)c2n1 [TCMDC-140062]	8.13	5.89	0 (0: NO)
Nc1ccc2[nH]cc(C3CCN(CC4CCC(NC(=O)/C=C/c5ccc(Cl)c(Cl)c5)CC4)CC3)c2n1 (stereo not drawn) [TCMDC-140064]	12.59	6.16	1 (1: YES)
O=C(/C=C/c1ccc(Cl)c(Cl)c1)N1CCC(CN2CCC(c3c[nH]c4ccncc34)CC2)CC1 [TCMDC-140074]	5.32	6.06	0 (0: NO)
CC(=O)Nc1ccc2[nH]cc(C3CCN(CC4CCN(C(=O)/C=C/c5ccc(Cl)c(Cl)c5)CC4)CC3)c2n1 [TCMDC-140112]	12.59	5.86	0 (0: NO)
CC(=O)Nc1ccc2[nH]cc(C3CCN(CC4CCC(NC(=O)/C=C/c5ccc(Cl)c(Cl)c5)CC4)CC3)c2n1 (stereo not drawn) [TCMDC-140114]	13.49	5.76	0 (0: NO)
Nc1cc2c(C3CCN(CC4CCN(C(=O)/C=C/c5ccc(Cl)c(Cl)c5)CC4)CC3)c[nH]c2cn1 [TCMDC-140133]	6.24	5.71	0 (0: NO)
COc1ccc(-c2ccccc2)cc1NC(=S)NC1CCC(CN2CCC(c3c[nH]c4ccccc34)CC2)CC1 (stereo not drawn) [TCMDC-140182]	5.50	5.78	0 (0: NO)
CCN(CC)CCN(Cc1ccc(-c2ccc(Cl)cc2)cc1)C(=O)Cn1cc(CN(C)C)c(=O)nc1SCc1ccc(F)cc1 [TCMDC-140406]	6.61	5.86	0 (0: NO)
CN1CCN(CCCNCc2ccccc2-c2cccc(CNCc3ccc4c(c3)OCO4)c2)CC1.O=C(O)C(F)(F)F [TCMDC-140476]	1.51	5.79	0 (0: NO)
N=C(N)Nc1nc(-c2ccc(NCc3ccc(CNc4cccc(-c5csc(NC(=N)N)n5)c4)cc3)cc2)cs1 [TCMDC-140699]	4.79	6.05	0 (0: NO)
CN1CCC=C(C(=O)NCC(C)(C)c2nc(-c3ccc(Cl)c(O)c3)c(-c3ccncc3)[nH]2)C1.Cl [TCMDC-140700]	13.36	5.72	0 (0: NO)
CCN(CC)CCN(Cc1ccc(-c2ccc(C(F)(F)F)cc2)cc1)C(=O)Cn1cc(Cc2cnn(C)c2)c(=O)nc1/C=C/c1ccc(F)cc1.O=C(O)C(O)C(O)C(=O)O [TCMDC-140741]	13.81	5.92	1 (1: YES)
